Reference: patent US6358293B1, “Methods for rendering high concentrations of manganese safe for plant growth and formulations for same” (The Hampshire Chemical Corporation, priority 1999, dated 2002)

Tests used:
Geranium [1] = experiment: Growth promotion versus conventionally cultured and single-additive controls; assay type: in vivo
Cabbage = experiment: Effective root application doses; assay type: in vivo; settings: 10 ml per plant
Description: (§1) The following are exemplary ranges of effective root application doses based on 10 ml per plant.

Coleus [2] = experiment: Effective root application doses; assay type: in vivo; settings: 10 ml per plant
Description: as §1

Geranium [3] = experiment: Effective root application doses; assay type: in vivo; settings: 10 ml per plant
Description: as §1

New Guinea Impatiens [4] = experiment: Effective foliar application doses; assay type: in vivo; settings: 1 to 4 ml per plant
Description: (§2) The following are exemplary ranges of effective foliar application doses based on 1 to 4 ml per plant.

Corn = experiment: Effective foliar application doses; assay type: in vivo; settings: 1 to 4 ml per plant
Description: as §2

Coleus [5] = experiment: Growth promotion versus conventionally cultured and single-additive controls; assay type: in vivo
plants = settings: conventional conditions of plant culture, especially under acidic conditions; cited from earlier work
New Guinea Impatiens [6] = experiment: Growth promotion versus conventionally cultured and single-additive controls; assay type: in vivo

With `[Mn+2]` [Mn, manganese] the “effect of additive on plant growth” value (Geranium [1]) was “phytotoxic”, the “effective root application dose, Mn” value (Cabbage; Mn applied with MeG) was 2 to 15 ppm and the “effective root application dose, Mn” value (Coleus [2]; Mn applied with MeG) was 2 to 7 ppm. For the same compound, the “effective root application dose, Mn” value (Geranium [3]; Mn applied with MeG) was 2 to 15 ppm, the “effective foliar application dose, Mn” value (New Guinea Impatiens [4]; Mn applied with MeG) was 10 to 25 ppm and the “effective foliar application dose, Mn” value (Corn; Mn applied with MeG) was 10 to 25 ppm. For the same compound, the “effect of additive on plant growth” value (Coleus [5]) was “phytotoxic”, the “concentration at which manganese is phytotoxic to plants” value (plants) was “greater than 500 ppb” and the “effect of additive on plant growth” value (New Guinea Impatiens [6]) was “phytotoxic”.
In the case of `CO[C@H]1OC(CO)[C@H](O)[C@@H](O)[C@@H]1O` (some centres unmarked) [MeG, methyl glucoside], the “effect of additive on plant growth” value (Geranium [1]) is reported as “retarded growth”, the “effective root application dose, MeG” value (Cabbage; MeG applied with Mn) is reported as 10 to 30 mM and the “effective root application dose, MeG” value (Coleus [2]; MeG applied with Mn) is reported as 5 to 50 mM. The “effective root application dose, MeG” value (Geranium [3]; MeG applied with Mn) was 10 to 100 mM, the “effective foliar application dose, MeG” value (New Guinea Impatiens [4]; MeG applied with Mn) was 200 to 500 mM and the “effective foliar application dose, MeG” value (Corn; MeG applied with Mn) was 5 to 25 mM. For the same compound, the “effect of additive on plant growth” value (Coleus [5]) was “retarded growth” and the “effect of additive on plant growth” value (New Guinea Impatiens [6]) was “retarded growth”.
